The target of this test is human p45MEK1 (GST-MEK) (Homo sapiens, UniProt Q02750). As to the kind of experiment: Assay for inhibitors of the MAP kinase pathway (coupled GST-MEK / GST-MAPK / MBP 33P incorporation assay). It is filed as biochemical. The following applies: GST-MEK activated by c-raf, 60min at room temperature with inhibitor, MBP substrate. As to the method:
To evaluate inhibitors of the MAPK pathway a coupled assay was carried out which measures phosphorylation of serine/threonine residues present in the substrate in the presence or absence of inhibitor. Recombinant glutathione S-transferase fusion protein containing human p45MEK1 (GST-MEK) was activated by c-raf (Sf9 insect cell lysate from triple baculoviral infection with c-raf/ras/lck) and used for the assay. Active GST-MEK was first used to activate a recombinant glutathione S-transferase fusion protein containing p44MAP kinase (GST-MAPK) in the presence of ATP and Mg^2+ for 60min at room temperature in the presence or absence of potential inhibitors. The activated GST-MAPK was then incubated with myelin basic protein (MBP) as substrate for 10min at room temperature in the presence of ATP, Mg^2+ and ^33P-ATP. The reaction was stopped by addition of 20% v/v phosphoric acid. Incorporation of ^33P into the myelin basic protein was determined by capture of the substrate on a filter mat, washing and counting using scintillation methods. The extent of inhibition was determined by comparison with untreated controls.
The final assay solution contained 10mM Tris, pH 7.5, 0.05mM EGTA, 8.33µM [γ^33P]ATP, 8.33mM Mg(OAc)2, 0.5mM sodium orthovanadate, 0.05%w/v BSA, 6.5ng GST-MEK, 1µg GST-MAPK and 16.5µg MBP in a reaction volume of 60µl.

pIC50: −log10 of the molar value.

The pIC50 is the IC50 on a negative log10 scale, so that one unit is a factor of ten. A low value points to a large IC50.

Chain of human p45MEK1 (GST-MEK) (Q02750 whole entry, the tested form may be a part): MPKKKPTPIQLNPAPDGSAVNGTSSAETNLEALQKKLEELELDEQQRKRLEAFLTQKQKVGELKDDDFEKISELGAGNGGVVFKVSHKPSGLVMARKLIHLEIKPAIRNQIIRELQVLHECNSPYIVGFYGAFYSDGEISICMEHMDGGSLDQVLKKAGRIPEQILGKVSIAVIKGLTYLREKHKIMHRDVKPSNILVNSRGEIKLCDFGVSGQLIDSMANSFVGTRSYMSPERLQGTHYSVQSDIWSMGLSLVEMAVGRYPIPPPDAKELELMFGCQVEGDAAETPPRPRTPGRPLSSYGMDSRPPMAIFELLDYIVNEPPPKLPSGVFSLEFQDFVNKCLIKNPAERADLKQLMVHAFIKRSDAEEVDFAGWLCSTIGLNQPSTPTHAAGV

`COc1cc2ncc(C#N)c(Nc3ccc(OCC4OCCO4)cc3)c2cc1OC` [Compound No 252] gave a pIC50 of 6.82.

Values taken from patent EP1178967B1, “QUINOLINE DERIVATIVES AS INHIBITORS OF MEK ENZYMES” (AstraZeneca AB, priority 1999, dated 2000).
